Experimental data taken from ChEMBL document CHEMBL3232725, “2-Aryl-3H-indol-3-ones: synthesis, electrochemical behaviour and antiplasmodial activities” (Eur J Med Chem, 2014).

Tests used:
[1] = Cytotoxicity against human MCF7 cells after 48 hrs by XTT reduction assay; assay type: cell-based
[2] = Selectivity index, ratio of CC50 for human MCF7 cells to IC50 for chloroquine-resistant Plasmodium falciparum FcB1 infected in RBC; assay type: functional
Plasmodium falciparum = assay: Antiplasmodial activity against chloroquine-resistant Plasmodium falciparum FcB1 infected in RBC assessed as inhibition of [3H]-hypoxanthine incorporation after 48 hrs by beta-counting; assay type: functional, organism-based; settings: FcB1/Columbia

Compound	CC50 at 48 h [1] [nM]	Ratio CC50/IC50 [2]	IC50 (Plasmodium falciparum) [nM]
COc1ccc(C2=Nc3ccccc3C2=O)cc1	38000	74	514
COc1ccc2c(c1)C(=O)C(c1ccc(OC(C)C)cc1)=N2	11200	127	88
COc1ccc2c(c1)C(=O)C(c1ccc(O)cc1)=N2	16000	164	99
O=C1C(c2ccccc2)=Nc2ccccc21	164000	135	1330
COc1ccc(C2=Nc3ccc(OC)cc3C2=O)cc1	30700	381.4	80
C[C@H]1[C@H](OC(=O)CCC(=O)O)O[C@@H]2O[C@@]3(C)CC[C@H]4[C@H](C)CC[C@@H]1[C@@]24OO3 [SODIUM ARESUNATE]			6
COc1ccc2c(c1)C(=O)C(c1ccc(N(C)C)cc1)=N2	20700	423.4	49
COc1ccc2c(c1)C(=O)C(c1ccccc1)=N2	21000	146	141
O=C1C(c2ccc(Cl)cc2)=Nc2ccccc21	20300	105	192
O=C1C(c2ccc(O)cc2)=Nc2ccccc21	130000	1289	101
